Values of other authors as cited in patent publication US20240122889A1, “DRY POWDER COMPOSITIONS OF TREPROSTINIL PRODRUGS AND METHODS OF USE THEREOF” (Insmed Incorporated, priority 0001, published 2024).

Tested on: conscious male guinea pigs

CCCCC[C@H](O)CC[C@@H]1[C@H]2Cc3cccc(OCC(=O)O)c3C[C@H]2C[C@H]1O [TRE, Treprostinil]
Threshold dose that causes cough (inhaled TRE given by nebulization): 1.2 μg TRE/kg body weight | Timing of cough (nebulized, time of exposure): ≤ 10 min
